Measurements reported in patent US6878742B2, “Heterocyclic sulfonamide inhibitors of beta amyloid production” (Wyeth, priority 2000, dated 2005).
Values joined by “and” are separate entries in the source; they are usually repeats but may differ in a detail not shown here. Equal entries are not always repeated. Where two headings read alike, the source gives them in different places. Values belong to the molecule of their own block, whether it stands above or below them.

Tests used:
[1] = test system: amyloid precursor protein (APP) proteolysis; test: Repressor Release Assay (RRA); format: cell-based; conditions: for fold induction at 20 µg/mL / fold induction at 10 µg/mL: read-out: APPI Fold Increase
How it was run: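 This repressor release assay monitors APP proteolysis in mammalian cells. Transfected CHO-K1 cells (pRSVO-luc plus APP-lacI) were seeded at […], treated with compound diluted in 25 mM Hepes, then incubated 36-48 hours. After replacing media with PBS and adding LucLite lysis/substrate buffer, luminescence was measured, and fold increase over diluent control was calculated.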

[2] = Conc 20 μg/mL, luciferase activity over diluent control
[3] = Conc 10 μg/mL, luciferase activity over diluent control
[4] = Conc 0.3 μg/mL, luciferase activity over diluent control
[5] = Conc 1 μg/mL, luciferase activity over diluent control
[6] = Conc 3 μg/mL, luciferase activity over diluent control

melting point: 95 to 98 °C
Molecule: CCC(CC)[C@H](NS(=O)(=O)c1ccc(Cl)s1)C(C)O (stereo partly drawn) [Example 222, 5-Chloro-N-[(S)-2-ethyl-1-(1-hydroxyethyl)butyl]thiophene-2-sulfonamide]
fold induction at 20 µg/mL [1, 2]: 7.2

melting point: 108 to 110 °C
Molecule: O=S(=O)(NC(CO)C1CCSCC1)c1ccc(Cl)s1 (stereo not shown) [Example 224, 5-Chloro-N-(2-hydroxy-1-tetrahydro-H-thiopyran-4-ylethyl)thiophene-2-sulfonamide]
fold induction at 20 µg/mL [1, 2]: 7.2

Molecule: CC[C@H](C)[C@H](NS(=O)(=O)c1ccc(Cl)s1)C(C)(C)O [Example 162, 5-Chloro-N-[(S,S)-1-(1-hydroxy-1-methylethyl)-2-methylbutyl]thiophene-2-sulfonamide]
fold induction at 10 µg/mL [1, 3]: 2.6

Molecule: CC(=O)N1CCC(CO)(NS(=O)(=O)c2ccc(Cl)s2)CC1 [Example 203, N-[1-Acetyl-4-(hydroxymethyl)piperidin-4-yl]-5-chlorothiophene-2-sulfonamide]
fold induction at 20 µg/mL [1, 2]: 1.5

Molecule: CC[C@H](C)[C@H](NS(=O)(=O)c1cccs1)C(O)CCC1OCCCO1 (stereo partly drawn) [Example 150, N-{(S)-4-(1,3-dioxan-2-yl)-2-hydroxy-1-[(S)-1-methylpropyl]butyl}thiophene-2-sulfonamide]
fold induction at 10 µg/mL [1, 3]: 1.6

Molecule: CC[C@H](C)[C@@H](CO)N(CCOc1ccccc1)S(=O)(=O)c1ccc(Cl)s1 [Example 87, 5-Chloro-N-[(1S,2S)-1-(hydroxymethyl)-2-methylbutyl]-N-(2-phenoxyethyl)thiophene-2-sulfonamide]
fold induction at 20 µg/mL [1, 2]: 3.1

Molecule: CCCCCC[C@@H](CCCCC)[C@@H](CO)NS(=O)(=O)c1ccc(Cl)s1 [Example 44, 5-chloro-N-[(1S,2R)-1-(hydroxymethyl)-2-pentyloctyl]thiophene-2-sulfonamide]
fold induction at 20 µg/mL [1, 2]: 1.6

Molecule: 5-bromo-N-{(S,R)-2-hydroxy-1-[(S)-1-methylpropyl]pent-4-enyl}thiophene-2-sulfonamide [Example 195]
APPI Fold Increase [1, 2]: 4.2 fold and 6.7 fold

Molecule: CCCCC[C@H](C)[C@@H](CO)NS(=O)(=O)c1ccc(Cl)s1 [Example 39, 5-chloro-N-[(1S,2S)-1-(hydroxymethyl)-2-methylheptyl]thiophene-2-sulfonamide]
fold induction at 20 µg/mL [1, 2]: 5.7

Molecule: O=S(=O)(N[C@H](CO)C1CCC(N2CCOCC2)CC1)c1ccc(Cl)s1 (stereo partly drawn) [Example 217, 5-chloro-N-[(S)-2-hydroxy-1-(4-morpholinocyclohexyl)ethyl]thiophene-2-sulfonamide]
fold induction at 20 µg/mL [1, 2]: 1.8

Molecule: CC[C@H](C)[C@@H](CO)NS(=O)(=O)c1cc(Br)c(Cl)s1 [Example 3]
APPI Fold Increase [1, 3]: 1 fold

Molecule: CC1=CC(C)C(C(CO)NS(=O)(=O)c2ccc(Cl)s2)C(C)C1 (stereo not shown) [Example 22, 5-chloro-N-[2-hydroxy-1-(2,4,6-trimethylcyclohex-3-en-1-yl)ethyl]thiophene-2-sulfonamide]
fold induction at 20 µg/mL [1]: 7

Molecule: CC[C@@H](C)[C@@H](CO)NS(=O)(=O)c1ccc(Cl)s1 [Example 16]
APPI Fold Increase [1, 4]: 1.7 fold | APPI Fold Increase [1, 5]: 1.9 fold and 2.56 fold | APPI Fold Increase [1, 6]: 3.1 fold and 4.47 fold | APPI Fold Increase [1, 3]: 4.19 fold and 3.2 fold

Molecule: C[C@@H](c1ccco1)[C@@H](CO)NS(=O)(=O)c1ccc(Cl)s1 [Example 48, 5-chloro-N-[(1S,2R)-2-(2-furyl)-1-(hydroxymethyl)propyl]thiophene-2-sulfonamide]
fold induction at 20 µg/mL [1, 2]: 4.7

Molecule: O=S(=O)(NC1(CO)CCCC1)c1ccc(Cl)s1 [Example 94]
APPI Fold Increase [1, 3]: 2.4 fold

Molecule: O=S(=O)(NC1(CO)Cc2ccccc2C1)c1ccc(Cl)s1 [Example 180]
APPI Fold Increase [1, 2]: 2.3 fold

Molecule: CCCCCC[C@@H](CCCCC)[C@@H](CO)NS(=O)(=O)c1ccc(Br)s1 [Example 65, 5-bromo-N-[(1S,2R)-1-(hydroxymethyl)-2-pentyloctyl]thiophene-2-sulfonamide]
fold induction at 20 µg/mL [1, 2]: 1.9

Molecule: CCCCC[C@H](c1ccccc1)[C@@H](CO)NS(=O)(=O)c1ccc(Cl)s1 [Example 45, 5-chloro-N-[(1S,2R)-1-(hydroxymethyl)-2-phenylheptyl]thiophene-2-sulfonamide]
fold induction at 20 µg/mL [1, 2]: 2.1

Molecule: 5-bromo-N-{(S,S)-1-[(S)-1-hydroxyethyl]-2-methylbutyl}thiophene-2-sulfonamide [Example 190]
APPI Fold Increase [1, 2]: 4.4 fold and 2.6 fold

Molecule: CCOC(=O)CNC1CCC([C@@H](CO)NS(=O)(=O)c2ccc(Cl)s2)CC1 (stereo partly drawn) [Example 220, 5-chloro-N-[(S)-2-hydroxy-1-(4-(carboethoxymethyl)aminocyclohexyl)ethyl]thiophene 2-sulfonamide]
fold induction at 20 µg/mL [1, 2]: 2.5

Molecule: CCC(CC)[C@@H](C=O)NS(=O)(=O)c1ccc(Cl)s1 [Example 221A, 5-Chloro-N-[(S)-2-ethyl-1-formylbutyl]thiophene-2-sulfonamide]
fold induction at 20 µg/mL [1, 2]: 4.9

Molecule: CCC[C@@H](O)[C@@H](NS(=O)(=O)c1ccc(Cl)s1)[C@@H](C)CC [Example 187, 5-chloro-N-{(S,R)-2-hydroxy-1-[(S)-1-methylpropyl]pentyl}thiophene-2-sulfonamide]
APPI Fold Increase [1, 2]: 5.7 fold and 3 fold

Molecule: CCC[C@H](O)[C@@H](NS(=O)(=O)c1ccc(Br)s1)[C@@H](C)CC [Example 192, 5-bromo-N-{(S,S)-2-hydroxy-1-[(S)-1-methylpropyl]pentyl}thiophene-2-sulfonamide]
APPI Fold Increase [1, 2]: 2.2 fold and 1.9 fold and 1.7 fold

Molecule: CCC(C)C(NS(=O)(=O)c1ccc(Cl)s1)C(O)CC(C)C (mixture of isomers) [Example 126]
APPI Fold Increase [1, 3]: 5.25 fold and 3.31 fold

Molecule: CC(NCc1ccccc1)[C@@H](CO)NS(=O)(=O)c1ccc(Cl)s1 (stereo partly drawn) [Example 84, N-[(1S)-2-(benzylamino)-1-(hydroxymethyl)propyl]-5-chloro-2-thiophenesulfonamide]
fold induction at 20 µg/mL [1, 2]: 3.8

Molecule: CC(C)C[C@@H](C(C)C)[C@@H](CO)NS(=O)(=O)c1ccc(Br)s1 [Example 75, 5-bromo-N-[(1S,2S)-1-(hydroxymethyl)-2-isopropyl-4-methylpentyl]thiophene-2-sulfonamide]
fold induction at 20 µg/mL [1, 2]: 4.7

Molecule: CCCCCC[C@@H](C(C)C)[C@@H](CO)NS(=O)(=O)c1ccc(Cl)s1 [Example 52, 5-chloro-N-[(1S,2S)-1-(hydroxymethyl)-2-isopropyloctyl]thiophene-2-sulfonamide]
fold induction at 20 µg/mL [1, 2]: 7

Molecule: CCC(NCc1ccccc1)[C@@H](CO)NS(=O)(=O)c1ccc(Cl)s1 (stereo partly drawn) [Example 85, N-[(1S)-2-(benzylamino)-1-(hydroxymethyl)butyl]-5-chloro-2-thiophenesulfonamide]
fold induction at 20 µg/mL [1, 2]: 8.9

Molecule: CC[C@H](C)[C@H](NS(=O)(=O)c1ccc(Cl)s1)C(O)c1ccc(F)cc1 (stereo partly drawn) [Example 130, 5-chloro-N-{(S,S)-1-[(4-fluorophenyl)(hydroxy)methyl]-2-methylbutyl}thiophene-2-sulfonamide]
fold induction at 10 µg/mL [1, 3]: 1.85

Molecule: CC[C@H](C)[C@H](NS(=O)(=O)c1cccs1)C(O)C1CCCC1 (stereo partly drawn) [Example 140, N-{(S,S)-1-[cyclopentyl(hydroxy)methyl]-2-methylbutyl}thiophene-2-sulfonamide]
fold induction at 10 µg/mL [1, 3]: 2.57

Molecule: CC[C@H](C)[C@H](NS(=O)(=O)c1ccc(Cl)s1)C(O)c1ccc(OC)cc1 (stereo partly drawn) [Example 134, 5-chloro-N-{(S,S)-1-[hydroxy(4-methoxyphenyl)methyl]-2-methylbutyl}thiophene-2-sulfonamide]
fold induction at 10 µg/mL [1, 3]: 2.42

Molecule: CCC(O)[C@@H](NS(=O)(=O)c1cccs1)[C@@H](C)CC (stereo partly drawn) [Example 148, N-{(S)-2-hydroxy-1-[(S)-1-methylpropyl]butyl}thiophene-2-sulfonamide]
fold induction at 10 µg/mL [1, 3]: 1.52

Molecule: C[C@@H](c1ccccc1)[C@@H](CO)NS(=O)(=O)c1ccc(Br)s1 [Example 66, 5-bromo-N-[(1S,2S)-1-(hydroxymethyl)-2-phenylpropyl]thiophene-2-sulfonamide]
fold induction at 20 µg/mL [1, 2]: 5.3

Molecule: CC[C@H](C)[C@H](NS(=O)(=O)c1ccc(Cl)s1)C(O)C/C=C/c1ccccc1 (stereo partly drawn) [Example 161, 5-chloro-N-{(S,E)-2-hydroxy-1-[(S)-1-methylpropyl]-5-phenylpent-4-enyl}thiophene-2-sulfonamide]
fold induction at 20 µg/mL [1, 2]: 2.6

Molecule: CC(C)[C@@](C)(CO)NS(=O)(=O)c1ccc(Cl)s1 [Example 26, 5-chloro-N-[(1S)-1-(hydroxymethyl)-1,2-dimethylpropyl]thiophene-2-sulfonamide]
fold induction at 20 µg/mL [1, 2]: 5

Molecule: CC[C@H](C)[C@@H](CO)NS(=O)(=O)c1cc(Cl)sc1Cl [Example 5]
APPI Fold Increase [1, 4]: 0.9 fold | APPI Fold Increase [1, 5]: 0.9 fold | APPI Fold Increase [1, 6]: 1.1 fold | APPI Fold Increase [1, 3]: 1.1 fold

Molecule: CC[C@H](C)[C@@H](CO)NS(=O)(=O)c1ccc(Cl)s1 [Example 4]
APPI Fold Increase [1, 5]: 2.22 fold | APPI Fold Increase [1, 6]: 2.98 fold and 3.52 fold | APPI Fold Increase [1, 3]: 3.3 fold and 5.03 fold | APPI Fold Increase [1, 2]: 4 fold and 5.4 fold and 3.3 fold and 5.1 fold

Molecule: CCC(CC)[C@H](NS(=O)(=O)c1ccc(Cl)s1)C(C)(C)O [Example 223, 5-Chloro-N-[(S)-2-ethyl-1-(1-hydroxy-1-methylethyl)butyl]thiophene-2-sulfonamide]
fold induction at 20 µg/mL [1, 2]: 5.6
